Read-outs that look alike come from different tables or passages of the source.
Assays:
5α-reductase type 1 = details: Table 1; read-out: IC50 for DHT inhibition, epithelial cells (type 1); cited from earlier work
5α-reductase type 2 = details: cited from earlier work
Type 1 5α-reductase [1] = details: Table 2, cited from earlier work; for IC50: read-out: IC50 for DHT, Type 1 5α-reductase
5-lipoxygenase = molecular target: T1, 5-lipoxygenase (Rattus norvegicus, UniProt P12527); assay: biochemical; details: for 5-Lipo activity: screened at 3×10^-5 (30 μM)
T1 sequence (P12527 1-673): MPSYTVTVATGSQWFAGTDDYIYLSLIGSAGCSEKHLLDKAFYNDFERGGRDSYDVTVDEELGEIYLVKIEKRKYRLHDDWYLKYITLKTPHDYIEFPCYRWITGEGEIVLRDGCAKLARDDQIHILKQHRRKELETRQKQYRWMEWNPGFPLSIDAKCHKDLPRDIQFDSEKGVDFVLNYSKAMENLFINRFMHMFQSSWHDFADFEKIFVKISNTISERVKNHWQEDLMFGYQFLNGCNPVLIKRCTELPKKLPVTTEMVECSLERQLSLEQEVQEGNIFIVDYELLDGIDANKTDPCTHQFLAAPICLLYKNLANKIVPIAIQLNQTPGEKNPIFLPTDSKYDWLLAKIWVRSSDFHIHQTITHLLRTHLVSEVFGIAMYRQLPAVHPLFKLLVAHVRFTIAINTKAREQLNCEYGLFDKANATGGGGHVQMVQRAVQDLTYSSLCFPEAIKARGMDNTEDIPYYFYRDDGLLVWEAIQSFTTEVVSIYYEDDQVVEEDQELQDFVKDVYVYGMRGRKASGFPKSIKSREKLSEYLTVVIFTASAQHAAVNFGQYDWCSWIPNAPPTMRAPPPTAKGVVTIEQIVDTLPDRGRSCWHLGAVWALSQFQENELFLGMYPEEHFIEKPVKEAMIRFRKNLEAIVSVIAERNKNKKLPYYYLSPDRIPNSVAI
Method: The procedure was as follows. 5-lipoxygenase assays were run using a crude enzyme preparation from rat basophilic leukemia cells (RBL-1). Test compounds were pre-incubated with the enzyme for 5 minutes at room temperature and the reaction was initiated by addition of substrate (arachidonic acid). Following an 8 minute incubation at room temperature, the reaction was terminated by addition of citric acid, and levels of 5-HETE were determined by 5-HETE radioimmunoassay (RIA).
Compounds and fractions were screened at an initial concentration of 3×10^-5.

Cyclooxygenase-1 = molecular target: T2, Cyclooxygenase-1 (Ovis aries, UniProt P05979); assay: biochemical; type: biochemical, ram; details: for Cox1 activity: screened at 3×10^-4 M
T2 construct: Cyclooxygenase-1 (from ram seminal vesicles); from tissue; host or cells: ram seminal vesicles; assay by Panlabs
T2 sequence (P05979 25-600): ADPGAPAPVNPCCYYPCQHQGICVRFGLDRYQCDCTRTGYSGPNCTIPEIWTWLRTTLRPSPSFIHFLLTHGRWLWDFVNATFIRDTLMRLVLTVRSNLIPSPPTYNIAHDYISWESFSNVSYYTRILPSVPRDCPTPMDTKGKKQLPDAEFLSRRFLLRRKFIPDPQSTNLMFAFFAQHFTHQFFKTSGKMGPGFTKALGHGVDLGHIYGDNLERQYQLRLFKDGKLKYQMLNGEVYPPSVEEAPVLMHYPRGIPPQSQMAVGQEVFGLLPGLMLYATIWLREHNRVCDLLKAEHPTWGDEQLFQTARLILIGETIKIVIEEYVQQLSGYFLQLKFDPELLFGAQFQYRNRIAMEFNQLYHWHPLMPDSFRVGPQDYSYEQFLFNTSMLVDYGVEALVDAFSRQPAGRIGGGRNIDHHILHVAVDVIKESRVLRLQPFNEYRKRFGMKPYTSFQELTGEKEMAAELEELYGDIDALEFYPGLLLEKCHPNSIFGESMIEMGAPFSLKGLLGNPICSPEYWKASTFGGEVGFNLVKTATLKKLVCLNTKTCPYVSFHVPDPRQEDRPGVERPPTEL
Method: The reaction was initiated by addition of arachidonic acid (100 mM) and terminated after 20 minutes incubation at 37° C. by addition of trichloroacetic acid (TCA).

Cyclooxygenase-2 = molecular target: T3, Cyclooxygenase-2 (Ovis aries, UniProt P79208); assay: biochemical; type: biochemical, sheep
T3 construct: Cyclooxygenase-2 (from sheep placenta); from tissue; host or cells: sheep placenta; assay by Panlabs
Method: The reaction is initiated by addition of arachidonic acid (100 mM) and terminated after 20 minutes incubation at 37° C. by addition of TCA.

5α-reductase [2] = details: cited from earlier work
Type 1 5α-reductase [3] = details: cited from earlier work
Type 2 5α-reductase = details: cited from earlier work
5α-reductase [4] = details: rat, in vivo; cited from earlier work
5α-reductase [5] = details: in vivo; cited from earlier work
[6] = cited from earlier work; for time to degradation in oil preparations: exposed to light, "in as little as"
[7] = Table 1, read-out: IC50 for DHT inhibition, stroma (type 2)
[8] = fibroblasts, read-out: IC50, inhibition of DHT formation in fibroblasts
[9] = Table 8, read-out: 5 Lipoxygenase IC50 (Table 8)
[10] = Table 8, read-out: Cyclooxygenase-1 IC50 (Table 8)
[11] = Table 8, read-out: Cyclooxygenase-2 IC50 (Table 8)

T3 sequence (P79208 17-603): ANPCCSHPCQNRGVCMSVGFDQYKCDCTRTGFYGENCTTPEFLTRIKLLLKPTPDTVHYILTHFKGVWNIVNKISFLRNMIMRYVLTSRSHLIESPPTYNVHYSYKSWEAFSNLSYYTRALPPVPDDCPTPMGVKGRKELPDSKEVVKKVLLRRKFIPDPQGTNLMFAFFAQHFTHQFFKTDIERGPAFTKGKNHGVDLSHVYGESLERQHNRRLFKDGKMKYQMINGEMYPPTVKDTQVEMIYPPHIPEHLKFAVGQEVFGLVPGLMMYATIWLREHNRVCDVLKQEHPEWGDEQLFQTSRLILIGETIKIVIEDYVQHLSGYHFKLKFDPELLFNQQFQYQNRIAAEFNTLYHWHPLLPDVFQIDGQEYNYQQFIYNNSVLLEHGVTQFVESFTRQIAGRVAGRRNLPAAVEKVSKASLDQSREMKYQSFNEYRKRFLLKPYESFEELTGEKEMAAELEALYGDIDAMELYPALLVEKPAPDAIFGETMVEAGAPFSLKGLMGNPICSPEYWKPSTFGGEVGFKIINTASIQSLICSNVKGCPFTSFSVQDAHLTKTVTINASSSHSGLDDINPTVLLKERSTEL

For `CCN(CC)C(=O)[C@H]1CC[C@H]2[C@@H]3CC[C@H]4N(C)C(=O)CC[C@]4(C)[C@H]3CC[C@]12C` [4-MA], which IC50 (5α-reductase type 1) is on record?
The IC50 was 20 nM.

What about the IC50 (5α-reductase type 2; [7]) of the same compound?
The IC50 was 50 nM.

What about the IC50 (5α-reductase type 2; [8]) of the same compound?
Its IC50 is 50 nM.

And the Inhibition type (Type 1 5α-reductase [1])?
The Inhibition type was “Competitive”.

And the IC50 (Type 1 5α-reductase [1])?
Its IC50 is 10 nM.

Which IC50 (5-lipoxygenase; [9]) does the source give for `CCCCCCCCCCCC(=O)OCC` [Ethyl laurate] here?
The IC50 was > 30000 nM.

And the 5-Lipo activity (5-lipoxygenase)?
Its 5-Lipo activity is “Negative”.

And the IC50 (Cyclooxygenase-1; [10])?
The IC50 was > 300000 nM.

And the Cox1 activity (Cyclooxygenase-1)?
Its Cox1 activity is “Negative”.

And the Cox2 activity (Cyclooxygenase-2)?
The Cox2 activity was “Negative”.

What about the IC50 (Cyclooxygenase-2; [11]) of the same compound?
Its IC50 is > 300000 nM.

What about the 5α-reductase inhibitory activity (5α-reductase [2]) of the same compound?
The 5α-reductase inhibitory activity was “markedly less effective”.

What does the source list for `CC(C)(C)NC(=O)[C@H]1CC[C@H]2[C@@H]3CC[C@H]4NC(=O)C=C[C@]4(C)[C@H]3CC[C@]12C` [Finasteride]?
IC50 (5α-reductase type 1): 400 nM; IC50 (5α-reductase type 2; [7]): 30 nM; IC50 (5α-reductase type 2; [8]): 30 nM; Inhibition type (Type 1 5α-reductase [1]): Competitive; IC50 (Type 1 5α-reductase [1]): 500 nM; type of inhibition (Type 1 5α-reductase [3]): competitive; IC50 (Type 1 5α-reductase [3]; read-out: inhibition, IC50): 400 nM; Ki (Type 1 5α-reductase [3]; read-out: inhibition, Ki): 108 nM; type of inhibition (Type 2 5α-reductase): (non)competitive; IC50 (Type 2 5α-reductase; read-out: inhibition, IC50): 10.7 nM; Ki (Type 2 5α-reductase; read-out: inhibition, Ki): 7.3 nM; inhibition of 5α-reductase in castrated rats (5α-reductase [4]): inhibits 5α-reductase; decrease in serum DHT levels (5α-reductase [5]): decrease in serum DHT levels

Which results are given for `CCCCCCCCCCCC(=O)O` [Lauric Acid]?
IC50 (5-lipoxygenase; [9]): > 30000 nM; 5-Lipo activity (5-lipoxygenase): Negative; IC50 (Cyclooxygenase-1; [10]): > 300000 nM; Cox1 activity (Cyclooxygenase-1): Negative; Cox2 activity (Cyclooxygenase-2): Negative; IC50 (Cyclooxygenase-2; [11]): > 300000 nM; 5α-reductase inhibitory activity (5α-reductase [2]): particularly potent inhibitors

Which results are given for `CCCCC/C=C\C/C=C\CCCCCCCC(=O)O` [Linoleic Acid]?
IC50 (5-lipoxygenase): > 30000 nM; 5-Lipo activity (5-lipoxygenase): Negative; IC50 (Cyclooxygenase-1): > 300000 nM; Cox1 activity (Cyclooxygenase-1): Negative; Cox2 activity (Cyclooxygenase-2): Negative; IC50 (Cyclooxygenase-2): > 300000 nM; 5α-reductase inhibitory activity (5α-reductase [2]): particularly potent inhibitors

With `CC/C=C\C/C=C\C/C=C\CCCCCCCC(=O)O` [Linolenic Acid] as the compound, how does the IC50 (5-lipoxygenase) read?
Its IC50 is 12000 nM.

And the Cox2 activity (Cyclooxygenase-2)?
The Cox2 activity was “Negative”.

What about the IC50 (Cyclooxygenase-2; [11]) of the same compound?
The IC50 was > 300000 nM.

And the 5α-reductase inhibitory activity (5α-reductase [2])?
The 5α-reductase inhibitory activity was “particularly potent inhibitors”.

For `CCC(C)C(=O)[C@]12C(=O)[C@](CC=C(C)C)(C[C@H](CC=C(C)C)[C@@]1(C)CCC=C(C)C)C(=O)C(CC=C(C)C)=C2O` (stereo partly shown) [adhyperforin], which “time to degradation in oil preparations” value [6] is on record?
The value was 14 days.

Which “time to degradation in oil preparations” value [6] does the source give for `CC(C)=CCCC1(C)C(CC=C(C)C)CC2(CC=C(C)C)C(=O)C(CC=C(C)C)=C(O)C1(C(=O)C(C)C)C2=O` (stereo not shown) [hyperforin] here?
The value was 14 days.

For `Cc1cc(O)c2c(=O)c3c(O)cc(O)c4c5c(O)cc(O)c6c(=O)c7c(O)cc(C)c8c1c2c(c34)c(c78)c65` [hypericin], which “hypericin content on storage” value ([6]; 60-140 °C, more than six weeks, powdered extract, tablet and juice) is on record?
The value was “drop significantly”.

Source: US6039950A, “Pharmaceutical grade saw palmetto” (priority 1997, dated 2000)
